Experimental data as given in US20140336182A1, “Aurora Kinase Modulators and Method of Use” (Amgen Inc., priority 2013, published 2014).

System: HeLa cells
Experiment: HeLa cell 24 hr ploidy assay (DNA content)
Format: cell-based
Settings: HeLa cells, 4N ploidy, average, read-out: 24h_4NPloidy EC50_IP (uM Avg)
In short: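 DNA content measured by Hoechst 33342 nuclear staining (0.5 ug/ml, 45 min RT) and high-content imaging of fixed HeLa cells after 24 h compound exposure in 0.25% DMSO. Fractions of 4N and >4N cells fitted to dose curves giving EC50 IP, EC50 transit, Max and Min.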

| SMILES | EC50 [µM] |
| --- | --- |
| Clc1ccc(-c2nnc(Nc3ccc(Sc4ccnc5cccnc45)cc3)c3ccccc23)cc1 [compound 308] | 0.006 |
| Clc1ccc(-c2nnc(Nc3ccc(Sc4ccnc5cccnc45)cc3)c3ccccc23)cc1 [Example 33, N-(4-(1,5-naphthyridin-4-ylthio)phenyl)-4-(4-chlorophenyl)phthalazin-1-amine] | 0.002 |

Same assay, conditions: Homo sapiens, HeLa, 4N ploidy, average, read-out: 24h_4NPloidy EC50_IP (uM Avg)

| SMILES | EC50 [µM] |
| --- | --- |
| COc1cncc(-c2nnc(Nc3ccc(Oc4ccnc5cc(OC)cnc45)cc3)c3ccccc23)c1 [compound 129] | 0.181 |
| COc1cnc2c(Oc3ccc(Nc4nnc(-c5ccc6occc6c5)c5ccccc45)cc3)ccnc2c1 [compound 159] | 0.007 |
| COc1cnc2c(Oc3ccc(Nc4nnc(-c5ccccc5)c5ccccc45)nc3)ccnc2c1 [compound 135] | 0.449 |
| Cc1csc(-c2nnc(Nc3ccc(Oc4ccnc5cc(C#N)ccc45)cc3)c3ccccc23)n1 [compound 86, 4-((4-((4-(4-methyl-1,3-thiazol-2-yl)-1-phthalazinyl)amino)phenyl)oxy)-7-quinolinecarbonitrile] | 0.097 |
| NC(=O)c1cc2nccc(Oc3ccc(Nc4nnc(-c5ccccc5)c5ccccc45)cc3)c2s1 [Example 46, 7-(4-(4-phenylphthalazin-1-ylamino)phenoxy)thieno[3,2-b]pyridine-2-carboxamide] | 0.171 |
| COc1cc2nccc(Oc3ccc(Nc4nnc(N5CCN(C)CC5)c5ccccc45)cc3)c2cn1 [compound 109] | 0.297 |
| COc1cnc2c(Oc3ccc(Nc4nnc(N5CCN6CCC[C@H]6C5)c5ccccc45)cc3)ccnc2c1 [compound 97] | 0.026 |
| N#Cc1ccc2c(Oc3ccc(Nc4nnc(-c5ccc(C(F)(F)F)cc5)c5ccccc45)cc3)ccnc2c1 [compound 147, 4-((4-((4-(4-(trifluoromethyl)phenyl)-1-phthalazinyl)amino)phenyl)oxy)-7-quinolinecarbonitrile] | 0.02 |
| COc1cc2ncnc(Oc3ccc(Nc4nnc(-c5cc(C)ccn5)c5ccccc45)cc3)c2cc1OC [compound 123] | 0.077 |
| COc1cnc2c(Oc3ccc(Nc4nnc(-c5ccccc5)cc4C)cc3)ccnc2c1 [compound 107] | 0.39 |
| Cc1ccc(-c2nnc(Nc3ccc(Oc4ccnc5ccccc45)c(F)c3)c3ccccc23)cc1 [compound 161] | 0.01 |
| Cc1csc(-c2nnc(Nc3ccc(Oc4ccnc5cc(C(N)=O)ccc45)cc3)c3ccccc23)n1 [compound 95] | 0.167 |
| COc1cc2nccc(Oc3ccc(Nc4nnc(-c5cccc(C)n5)c5ccccc45)cc3)c2cc1OC [compound 150] | 0.017 |

Same assay, conditions: Homo sapiens, HeLa, HeLa cells, 4N ploidy, average, read-out: 24h_4NPloidy EC50_IP (uM Avg)

| SMILES | EC50 [µM] |
| --- | --- |
| COc1cnc2c(Oc3ccc(Nc4nnc(-c5ccccc5)c(C)c4C)cc3)ccnc2c1 [compound 281] | 0.378 |
| Clc1ccc(-c2nnc(Nc3ccc(Sc4ccnc5cc(C6CC6)oc45)cc3)c3ccccc23)cc1 [compound 486] | 0.002 |
| COc1cnc2c(Oc3ccc(Nc4nnc(N5CCN6CCCCC[C@@H]6C5)c5ccccc45)cc3)ccnc2c1 [compound 604] | 0.087 |
| Clc1ccc(-c2nnc(Nc3ccc(Sc4ccnc5ccsc45)cc3)c3ccccc23)cc1 [compound 332] | 0.001 |
| N#Cc1cc2nccc(Sc3ccc(Nc4nnc(-c5ccc(Cl)cc5)c5ccccc45)cc3)c2o1 [compound 489] | 0.017 |
| CCCc1cc(-c2ccccc2)nnc1Nc1ccc(Oc2ccnc3cc(C#N)ccc23)cc1 [compound 196] | 0.342 |
| COc1cnc2c(Sc3ccc(Nc4nnc(-c5cscn5)c5ccccc45)cc3)ccnc2c1 [compound 506] | 0.067 |
| CCc1cc(-c2ccccc2)nnc1Nc1ccc(Sc2ccnc3cc(OC)cnc23)cc1 [compound 274, 4-ethyl-N-(4-(7-methoxy-1,5-naphthyridin-4-ylthio)phenyl)-6-phenylpyridazin-3-amine] | 0.029 |
| Clc1ccc(-c2nnc(Nc3ccc(Oc4ccnc5ccncc45)cc3)c3ccccc23)cc1 [compound 423] | 0.031 |
| COc1cnc2c(Oc3ccc(Nc4nnc(-c5nccn5C)c5ccccc45)cc3)ccnc2c1 [Example 30, N-(4-(7-methoxy-1,5-naphthyridin-4-yloxy)phenyl)-4-(1-methyl-1H-imidazol-2-yl)phthalazin-1-amine] | > 1.2 |
| COc1cnc2c(Oc3ccc(Nc4nnc(-c5ccc(C)c(N)c5)c5ccccc45)cc3)ccnc2c1 [compound 209] | 0.004 |
| COc1cnc2c(Sc3ccc(Nc4nnc(-c5ccc(C)c(N)c5)c5ccccc45)cc3)ccnc2c1 [compound 477] | 0.001 |
| COc1cnc2c(Sc3ccc(Nc4nnc(N5CCC(C(F)(F)F)CC5)c5ccccc45)cc3)ccnc2c1 [compound 523] | 0.006 |
| Clc1ccc(-c2nnc(Nc3ccc(CN4CCOc5ccccc54)cc3)c3ccccc23)cc1 [compound 349] | > 1.2 |
| COc1cnc2c(Oc3ccc(Nc4nnc(-c5ccc(N(C)C)cc5)c5ccccc45)cc3)ccnc2c1 [compound 194] | 0.033 |
| Fc1cc(F)c2c(Sc3ccc(Nc4nnc(-c5ccc(Cl)cc5)c5ccccc45)cc3)ccnc2c1 [compound 342] | 0.044 |
| COc1ccc(-c2nnc(Nc3ccc(Sc4ccnc5ccoc45)cc3)c3ccccc23)cn1 [compound 485] | 0.069 |
| COc1cnc2c(Sc3ccc(Nc4nnc(-c5ccc6cn(C)nc6c5)c5ccccc45)cc3)ccnc2c1 [compound 502] | 0.006 |
| COc1cnc2c(Oc3ccc(Nc4nnc(-c5ccc6c(c5)OCO6)c5ccccc45)cc3)ccnc2c1 [compound 306, 4-(1,3-benzodioxol-5-yl)-N-(4-((7-(methyloxy)-1,5-naphthyridin-4-yl)oxy)phenyl)-1-phthalazinamine] | 0.006 |
| COc1cc(F)cc2nccc(Sc3ccc(Nc4nnc(-c5cc(C)cs5)c5ccccc45)cc3)c12 [compound 440] | 0.029 |
| COc1ccc2c(Cc3ccc(Nc4nnc(-c5ccccc5)c5ccccc45)cc3)ccnc2c1 [compound 319] | 0.028 |
| COc1cnc2c(Oc3ccc(Nc4nnc(-c5ccc6cc[nH]c6c5)c5ccccc45)cc3)ccnc2c1 [compound 206] | 0.002 |
| COc1cnc2c(Sc3ccc(Nc4nnc(N5CCC(Cl)CC5)c5ccccc45)cc3)ccnc2c1 [compound 527] | 0.004 |
| COc1cccc(-c2nnc(Nc3ccc(Oc4ccnc5cc(-c6cncn6C)sc45)cc3)c3ccccc23)n1 [compound 240] | 0.01 |

| SMILES | EC50 [µM] |
| --- | --- |
| COc1ccc2nccc(Oc3ccc(Nc4nnc(-c5ccc(Cl)cn5)c5ccccc45)cc3)c2c1 [compound 278] | 0.011 |
| COc1cnc2c(Sc3ccc(Nc4nnc(-c5cccc(Cl)c5)c5ccccc45)cc3)ccnc2c1 [compound 516] | 0.025 |
| O=C(c1cc2nccc(Sc3ccc(Nc4nnc(-c5ccc(Cl)cc5)c5ccccc45)cc3)c2s1)N1CCOCC1 [compound 314] | 0.03 |
| COc1ccc2nccc(Sc3ccc(Nc4nnc(-c5cccc(C)n5)c5ccccc45)cc3)c2n1 [compound 419] | 0.124 |
| COc1cnc2c(Sc3ccc(Nc4nnc(-c5ccn(C)c(=O)c5)c5ccccc45)cc3)ccnc2c1 [Example 396, 4-(4-(4-(7-Methoxy-1,5-naphthyridin-4-ylthio)phenylamino)phthalazin-1-yl)-1-methylpyridin-2(1 H)-one] | 0.008 |
| COc1cnc2c(Sc3ccc(Nc4nnc(N5CCN6C[C@H](F)C[C@H]6C5)c5ccccc45)cc3)ccnc2c1 [compound 600] | 0.007 |
| COc1cnc2c(Oc3ccc(Nc4nnc(-c5cccc(N(C)C)c5)c5ccccc45)cc3)ccnc2c1 [compound 258] | 0.004 |
| COc1cnc2c(Sc3ccc(Nc4nnc(N5CCN(S(C)(=O)=O)CC5)c5ccccc45)cc3)ccnc2c1 [compound 605] | 0.018 |
| COc1cnc2c(Sc3ccc(Nc4nnc(N5CCC[C@@H](OC)C5)c5ccccc45)cc3)ccnc2c1 [compound 532] | 0.02 |
| COc1ccc2c(Cc3ccc(Nc4nnc(-c5ccc(Cl)cc5)c5ccccc45)cc3)ccnc2c1 [compound 328] | 0.006 |
| c1ccc(-c2nnc(Nc3ccc(Oc4ccnc5cc(-c6ccsc6)ccc45)cc3)c3ccccc23)cc1 [compound 339] | 0.027 |
| COc1ccc2nccc(Oc3ccc(Nc4nnc(-c5cc(C)cs5)c5ccccc45)cc3)c2n1 [compound 552] | 0.01 |
| COc1cnc2c(Sc3ccc(Nc4nnc(-c5ccc(Cl)cc5)c5ccccc45)cc3)ccnc2c1 [compound 232] | 0.004 |
| COc1cnc2c(Oc3ccc(Nc4nnc(N5CCSCC5)c5ccccc45)cc3)ccnc2c1 [compound 337] | 0.229 |
| Cc1csc(-c2nnc(Nc3ccc(Sc4ccnc5ccc(OC(F)(F)F)cc45)cc3)c3ccccc23)c1 [compound 572] | 0.055 |
| c1ccc(-c2nnc(Nc3ccc(Sc4ccnc5ccccc45)cc3)c3ccccc23)cc1 [compound 310] | 0.011 |
| Fc1ccc2c(Oc3ccc(Nc4nnc(-c5ccc(Cl)cc5)c5ccccc45)cc3)ccnc2c1 [compound 455] | 0.008 |
| COc1cnc2c(Oc3ccc(Nc4nnc(-c5cc(CF)cs5)c5ccccc45)cc3)ccnc2c1 [Example 408, 4-(4-(Fluoromethyl)thiophen-2-yl)-N-(4-(7-methoxy-1,5-naphthyridin-4-yloxy)phenyl)phthalazin-1-amine] | 0.025 |
| COc1cnc2c(Oc3ccc(Nc4nnc(-c5ccnn5C)c5ccccc45)cc3)ccnc2c1 [compound 223] | > 1.2 |
| COc1cc2nccc(Oc3ccc(Nc4nnc(-c5ccccc5)c5ccccc45)cc3)c2cc1C(N)=O [compound 225] | 0.004 |
| Cc1csc(-c2nnc(Nc3ccc(Oc4ccnc5ccc(OC(F)(F)F)cc45)cc3)c3ccccc23)c1 [compound 575] | 0.112 |
| Clc1ccc(-c2nnc(Nc3ccc(Sc4ccnc5ccncc45)cc3)c3ccccc23)nc1 [compound 430] | 0.007 |
| COc1cnc2c(Sc3ccc(Nc4nnc(-c5ccc6nonc6c5)c5ccccc45)cc3)ccnc2c1 [compound 504] | 0.006 |
| COc1cnc2c(Oc3ccc(Nc4nnc(-c5cccc(C)c5)c5ccccc45)cc3)ccnc2c1 [compound 317] | 0.033 |
